Reference: PMC10232258 (Journal of Antimicrobial Chemotherapy, 2023)

Columns and labels:
[1] = Population PK analysis; assay type: in vivo, human; conditions: for CLTFV: full model
[2] = average of five clinical studies (Table S4)
[3] = ref Yager et al. 50; cited from earlier work
[4] = cited from earlier work
[5] = system: HIV-1; conditions: background statement; cited from earlier work
[6] = full final model, bootstrap median

In the case of `C[C@H](Cn1cnc2c(N)ncnc21)OCP(=O)(O)O` [tenofovir], the CLTFV ([1]; 80-year-olds) is reported as 36 L/h, the “CLTFV lower than in normal kidney function” value ([1]; CLCR of 20 mL/min (stage 3 CKD) versus normal kidney function) is reported as 57% and the “CLTFV, apparent clearance of tenofovir” value ([1]; base model, ka fixed to 2 h−1) is reported as 39.9 L/h. The “θAge, age effect on CLTFV” value [1, 6] was −0.242, the “θBlack or Hispano American, ethnicity effect on CLTFV” value [1, 6] was 0.120 and the “θCobicistat, effect of cobicistat on F” value [1, 6] was 1.16. For the same molecule, the “θPotent P-gp inhibitors, effect on CLTFV” value [1, 6] was −0.119, the “CLTFV, apparent clearance of tenofovir” value ([1]; full final model, bootstrap median (n = 2000 samples)) was 42.3 L/h and the “θBlack or Hispano American, ethnicity effect on CLTFV” value ([1]; full final model, estimate) was 0.119. The “θPotent P-gp inhibitors, effect on CLTFV” value ([1]; full final model, estimate) was −0.121, the “θAge, age effect on CLTFV” value ([1]; full final model, estimate, Agemedian = 51 years) was −0.244 and the “CLTFV, apparent clearance of tenofovir” value ([1]; full final model, estimate, CLCR-ref 100 mL/min, median age 51 years) was 42.2 L/h. For the same molecule, the “VTFV, apparent volume of distribution of tenofovir” value ([1]; full final model, estimate, PLWH after oral TAF) was 2390 L, the Tmax ([1]; human, plasma, oral) was 2.4 h and the half-life ([1]; human, plasma, oral) was 46 h. The Vd ([1]; human, plasma, oral, VTFV, apparent volume of distribution of tenofovir, full final model, bootstrap median (n = 2000 samples)) was 2400 L, the CLTFV ([1]; individuals with CLCR of 20 mL/min (stage 3 CKD)) was 18 L/h and the CLTFV ([1]; normal kidney function) was 42 L/h. For the same molecule, the CLTFV ([1]; younger PLWH, median age 51 years) was 42 L/h.

In the case of `CC(C)OC(=O)[C@H](C)N[P@](=O)(CO[C@H](C)Cn1cnc2c(N)ncnc21)Oc1ccccc1` [tenofovir alafenamide], the “Increase of relative bioavailability F (absorption of TAF) by cobicistat” value ([1]; TAF 10 mg with cobicistat versus 25 mg alone (F = 1)) is given as 115%, the “Higher intracellular exposure in tenofovir diphosphate, TAF versus TDF” value [2] is given as “six-fold” and the “Tenofovir diphosphate levels, TAF once every 3 days versus TDF every day” value [3] is given as 2.6 times. The “Lower plasma levels of tenofovir under standard TAF versus TDF dosage” value [4] was 90% and the “Potency relative to tenofovir disoproxil fumarate” value [5] was 10 times.
